How the values were obtained:
Acetylcholinesterase = target: T1, Acetylcholinesterase (Mus musculus, UniProt P21836)
T1 sequence (P21836 whole entry): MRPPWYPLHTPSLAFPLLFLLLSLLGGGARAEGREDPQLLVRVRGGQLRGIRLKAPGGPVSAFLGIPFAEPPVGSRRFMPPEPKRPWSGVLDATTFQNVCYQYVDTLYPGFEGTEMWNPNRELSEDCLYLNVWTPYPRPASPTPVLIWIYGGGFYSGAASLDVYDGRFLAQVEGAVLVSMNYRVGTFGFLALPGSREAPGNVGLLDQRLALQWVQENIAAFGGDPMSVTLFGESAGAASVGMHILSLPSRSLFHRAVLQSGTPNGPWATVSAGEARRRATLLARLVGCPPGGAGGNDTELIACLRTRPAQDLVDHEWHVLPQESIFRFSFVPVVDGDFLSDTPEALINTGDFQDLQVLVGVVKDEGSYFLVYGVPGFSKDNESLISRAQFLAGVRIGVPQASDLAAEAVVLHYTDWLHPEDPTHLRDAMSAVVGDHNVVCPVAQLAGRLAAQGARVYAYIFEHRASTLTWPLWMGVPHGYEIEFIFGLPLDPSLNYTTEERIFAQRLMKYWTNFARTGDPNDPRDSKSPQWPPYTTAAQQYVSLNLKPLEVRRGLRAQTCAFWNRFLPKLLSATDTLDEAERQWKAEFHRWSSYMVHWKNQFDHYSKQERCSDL
Description: Inhibition of ICR mouse brain AChE using acetylthiocholine iodide as substrate preincubated for 10 mins before substrate addition by modified Ellman's method

Mus musculus [1] = assay: Reversal of scopolamine-induced memory deficit in ICR mouse assessed as latency time at 0.5 mg/kg, ip administered 30 min before acquisition trial by passive avoidance test (Rvb =271.0 +/- 14.49 seconds); format: functional; conditions: route intraperitoneal
Mus musculus [2] = assay: Toxicity in ICR mouse assessed as behavioral changes measured as latency time during acquisition trial at 0.5 to 5 mg/kg, po administered 30 min before acquisition trial by passive avoidance test; format: organism-based; set-up: dose 0.5-5 mg/kg, route oral; conditions: in vivo, 0.5 h
Mus musculus [3] = assay: Reversal of scopolamine-induced memory deficit in ICR mouse assessed as latency time at 1 mg/kg, po administered 30 min before acquisition trial by passive avoidance test (Rvb =271.0 +/- 14.49 seconds); format: functional
Mus musculus [4] = assay: Reversal of scopolamine-induced memory deficit in ICR mouse assessed as latency time at 2 mg/kg, po administered 30 min before acquisition trial by passive avoidance test (Rvb =271.0 +/- 14.49 seconds); format: functional
Mus musculus [5] = assay: Reversal of scopolamine-induced memory deficit in ICR mouse assessed as latency time at 5 mg/kg, po administered 30 min before acquisition trial by passive avoidance test (Rvb =271.0 +/- 14.49 seconds); format: functional

Row | Structure (SMILES) | IC50 (Acetylcholinesterase) | also measured
1 | O=C1/C(=C/c2ccc(O)cc2)Oc2cc(OCCN3CCCCC3)ccc21 | 13500 nM | 
2 | O=C1/C(=C/c2ccc(O)cc2)Oc2cc(OCCN3CCCC3)ccc21 | 11100 nM | 
3 | CCN(CC)CCOc1ccc2c(c1)O/C(=C\c1ccc(O)cc1)C2=O | 35500 nM | 
4 | O=C1/C(=C/c2ccc(O)cc2)Oc2cc(OCCN3CCOCC3)ccc21 | 186000 nM | 
5 | COc1ccccc1/C=C1\Oc2cc(OCCN3CCCCC3)ccc2C1=O | 2520 nM | 
6 | COc1cccc(/C=C2\Oc3cc(OCCN4CCCCC4)ccc3C2=O)c1 | 1150 nM | 
7 | COc1ccc(/C=C2\Oc3cc(OCCN4CCCCC4)ccc3C2=O)cc1 | 900 nM | 
8 | COc1ccc(/C=C2\Oc3cc(OCCN4CCCCC4)ccc3C2=O)cc1OC.Cl | 400 nM | Time (Mus musculus [1]): 88.9 s; Activity (Mus musculus [2]): Non-toxic; Time (Mus musculus [3]): 242.5 s; Time (Mus musculus [4]): 222.4 s; Time (Mus musculus [5]): 206.8 s
9 | COc1cc(/C=C2\Oc3cc(OCCN4CCCCC4)ccc3C2=O)cc(OC)c1OC | 1120 nM | 
10 | COc1ccccc1/C=C1\Oc2cc(OCCN3CCCC3)ccc2C1=O | 2870 nM | 
11 | COc1cccc(/C=C2\Oc3cc(OCCN4CCCC4)ccc3C2=O)c1 | 1610 nM | 
12 | COc1ccc(/C=C2\Oc3cc(OCCN4CCCC4)ccc3C2=O)cc1 | 2380 nM | 
13 | COc1cccc(/C=C2\Oc3cc(OCCN4CCCC4)ccc3C2=O)c1OC | 990 nM | 
14 | COc1ccc(/C=C2\Oc3cc(OCCN4CCCC4)ccc3C2=O)c(OC)c1 | 1610 nM | 
15 | COc1ccc(OC)c(/C=C2\Oc3cc(OCCN4CCCC4)ccc3C2=O)c1 | 1490 nM | 
16 | COc1ccc(/C=C2\Oc3cc(OCCN4CCCC4)ccc3C2=O)cc1OC | 750 nM | 
17 | COc1cc(/C=C2\Oc3cc(OCCN4CCCC4)ccc3C2=O)cc(OC)c1 | 4810 nM | 

Row | Structure (SMILES) | IC50 (Acetylcholinesterase) | also measured
18 | COc1ccc(/C=C2\Oc3cc(OCCN4CCCC4)ccc3C2=O)c(OC)c1OC | 13700 nM | 
19 | COc1cc(/C=C2\Oc3cc(OCCN4CCCC4)ccc3C2=O)cc(OC)c1OC | 1560 nM | 
20 | COc1cccc(/C=C2\Oc3cc(OCCCN4CCCCC4)ccc3C2=O)c1 | 750 nM | 
21 | COc1ccccc1/C=C1\Oc2cc(OCCCN3CCCC3)ccc2C1=O | 5930 nM | 
22 | COc1cccc(/C=C2\Oc3cc(OCCCN4CCCC4)ccc3C2=O)c1 | 4200 nM | 
23 | COc1ccc(/C=C2\Oc3cc(OCCCN4CCCC4)ccc3C2=O)cc1 | 3310 nM | 
24 | COc1cccc(/C=C2\Oc3cc(OCCCN4CCCC4)ccc3C2=O)c1OC | 1050 nM | 
25 | COc1ccc(/C=C2\Oc3cc(OCCCN4CCCC4)ccc3C2=O)c(OC)c1 | 1660 nM | 
26 | COc1ccc(OC)c(/C=C2\Oc3cc(OCCCN4CCCC4)ccc3C2=O)c1 | 4740 nM | 
27 | COc1ccc(/C=C2\Oc3cc(OCCCN4CCCC4)ccc3C2=O)cc1OC | 1030 nM | 
28 | COc1cc(/C=C2\Oc3cc(OCCCN4CCCC4)ccc3C2=O)cc(OC)c1 | 4630 nM | 
29 | COc1ccc(/C=C2\Oc3cc(OCCCCN4CCCCC4)ccc3C2=O)cc1OC | 1520 nM | 
30 | COc1ccc(/C=C2\Oc3cc(OCCCCCN4CCCCC4)ccc3C2=O)cc1OC | 1260 nM | 
31 | COc1ccc(/C=C2\Oc3cc(OCCCN4CCCCC4)ccc3C2=O)cc1OC | 890 nM | 
32 | COc1ccc2c3c1O[C@H]1C[C@@H](O)C=C[C@@]31CCN(C)C2 [GALANTAMINE] |  | Time (Mus musculus [3]): 212.2 s
33 | O=C1/C(=C/c2ccc(O)c(O)c2)Oc2cc(O)ccc21 [SULFURETIN] | 699000 nM | 

Reference: ChEMBL document CHEMBL3352399, “Synthesis of aminoalkyl-substituted aurone derivatives as acetylcholinesterase inhibitors” (Bioorg Med Chem, 2015)
